From PMC7281072 (Cancers, 2020)
Where two headings read alike, the source gives them in different places.

Assays:
[1] = system: UWB1.289+BRCA1 cancer cell line
OVCAR-5 cancer cell line = assay: cells; settings: Homo sapiens, OVCAR-5, 48 h; for GI50: read-out: GI50 (50% Growth Inhibition); for IC50: read-out: IC50 (cytotoxic effect)
ERK1,2 phosphorylation = assay: ERK1/2 phosphorylation ELISA, UWB1.289+BRCA1 cells; type: cell-based, human; settings: for Vmax ± SE, pERK 1/2 inhibition: Michaelis Menten model; for IC50: Homo sapiens, read-out: IC50, pERK 1/2 inhibition
SK-OV-3 cancer cell line = assay: cells; settings: Homo sapiens, SK-OV-3, 48 h; for GI50: read-out: GI50 (50% Growth Inhibition); for IC50: read-out: IC50 (cytotoxic effect)
in vivo = settings: both, CB17 SCID, mouse, ip

| Structure (SMILES) | TGI (Total Growth Inhibition) [1] [μΜ] | GI50 (OVCAR-5 cancer cell line) [µM] | IC50 (OVCAR-5 cancer cell line) [µM] | Vmax ± SE, pERK 1/2 inhibition (ERK1,2 phosphorylation; 15 min) | Vmax ± SE, pERK 1/2 inhibition (ERK1,2 phosphorylation; 30 min) | Vmax ± SE, pERK 1/2 inhibition (ERK1,2 phosphorylation; 60 min) | IC50 (ERK1,2 phosphorylation; 0.25 h, 15 min) [µM] | IC50 (ERK1,2 phosphorylation; 0.5 h, 30 min) [µM] | IC50 (ERK1,2 phosphorylation; 1 h, 60 min) [µM] | GI50 (SK-OV-3 cancer cell line) [µM] | IC50 (SK-OV-3 cancer cell line) [µM] | LD50 (in vivo) [mg/kg] |
| --- | --- | --- | --- | --- | --- | --- | --- | --- | --- | --- | --- | --- |
| C[C@]12CC[C@H]3[C@@H](CCC4=CC(=O)NCC[C@@]43C)[C@@H]1CC[C@@H]2OC(=O)CCOc1ccc(N(CCCl)CCCl)cc1 [ENGA-L06E, 5a,7a-dimethyl-2-oxo-2,3,4,5,5a,5b,6,7,7a,8,9,10,10a,10b,11,12-hexa decahydrocyclopenta [5, 6] naphtho [1,2-d] azepin-8-yl 3-(4-(bis(2-chloroethyl)amino)phenoxy) propanoate] | 28 ± 1.9 | 25 ± 1.4 | 65 ± 3.4 | 59.43 ± 1.10 | 72.79 ± 1.14 | 74.35 ± 0.49 | 28.7 | 12.4 | 9.29 | 18 ± 0.9 | 76 ± 7.5 | – |
| C[C@]12CC[C@@H]3c4ccc(OC(=O)CCOc5ccc(N(CCCl)CCCl)cc5)cc4CC[C@H]3[C@@H]1CCC(=O)N2 [ENGA-L08E, 12a-methyl-2-oxo-1,2,3,4,4a,4b,5,6,10b,11,12,12a-dodecahydronaphtho[2,1-f]quinolin-8-yl 3-(4-(bis (2-chloroethyl)amino)phenoxy) propanoate] | 76 ± 7.2 | 11 ± 0.6 | 92 ± 8.4 | 56.97 ± 0.61 | 66.56 ± 1.99 | 71.72 ± 1.86 | 25 | 10.7 | 8.56 | 10 ± 0.5 | > 100 | 95 |
